Measurements as given in US5840711A, “Compositions containing lithium inorganic salts and anti-viral drugs and method of treating viral infections such as acquired immunodeficiency syndrome” (priority 1997, dated 1998).

Columns and labels:
[1] = system: CFU-Meg (Megakaryocyte) of normal bone marrow cells; assay: AZT bone marrow toxicity in vitro, CFU-Meg colony formation; type: cell-based; also: unit not given here
Description: (§1) This is a standard practice.

[2] = system: CFU-GM (Myeloid) of normal bone marrow cells; assay: AZT bone marrow toxicity in vitro, CFU-GM colony formation; type: cell-based; also: unit not given here
Description: as §1

[3] = system: H9 cells that are chronically infected with HIV; assay: LiGLA 4 days incubation in vitro with H9 cells chronically infected with HIV; type: cell-based
[4] = system: BFU-E (Erythroid) of normal bone marrow cells; assay: AZT bone marrow toxicity in vitro, BFU-E colony formation; type: cell-based; also: unit not given here
Description: as §1

non-infected H9 cells = conditions: 4 days incubation in vitro
Description: Lithium gamma linolenate (LiGLA) for this study was obtained from Enfamol, Kentville, Nova Scotia, Canada.

CCCCC/C=C\C/C=C\C/C=C\CCCCC(=O)[O-].[Li+] [Li-GLA, lithium gamma-linolenate]
CFU-Meg (Megakaryocyte) colonies ([1]; Li-GLA 10 μg/ml): 32.0 ± 3
CFU-Meg (Megakaryocyte) colonies ([1]; Li-GLA 15 μg/ml): 28.0 ± 4
CFU-Meg (Megakaryocyte) colonies ([1]; Li-GLA 20 μg/ml): 24.0 ± 3
CFU-GM (Myeloid) colonies ([2]; Li-GLA 10 μg/ml): 66.5
CFU-GM (Myeloid) colonies ([2]; Li-GLA 15 μg/ml): 55.5
CFU-GM (Myeloid) colonies ([2]; Li-GLA 20 μg/ml): 45.0
H9 cells killed [3]: 90%
BFU-E (Erythroid) colonies ([4]; Li-GLA 10 μg/ml): 50 ± 4
BFU-E (Erythroid) colonies ([4]; Li-GLA 15 μg/ml): 44 ± 4
BFU-E (Erythroid) colonies ([4]; Li-GLA 20 μg/ml): 31 ± 3
H9 cells killed (non-infected H9 cells): 20%
